Reference: patent US12691070B2, “Cationic lipids and preparation method thereof” (RiboX Therapeutics HK Limited, priority 2023, dated 2026)

What was measured:
[1] = test system: Alanine Aminotransferase (ALT); test: Liver enzyme elevation in serum, ALT; assay type: in vivo; conditions: cirRNA (SEQ ID NO: 1) LNPs, BALB/C mice, intravenous 0.5 MPK
Method: (§1) 6-8 week old, female BALB/C mice were injected with 0.5 mg*kg-1 of RNA LNPs by intravenous injection. At 2 and 24 hours post injection, animals were bled and sera concentrations of Alanine Aminotransferase (ALT) and Aspartate Aminotransferase (AST) were determined by a blood chemistry analyzer.

[2] = RNA encapsulation efficacy by Quant-IT Ribogreen kit; assay type: physicochemical; conditions: for Encapsulation Efficiency %: LNP with cirRNA (SEQ ID NO: 1); for Encapsulation Efficiency: LNP with mRNA (SEQ ID NO: 2)
How it was run: (§2)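 Dynamic light scattering and zeta potential measurements were run on PBS-dialyzed LNPs, which had been formed by microfluidic mixing at 12 ml/min with final lipid at 1.5 mM to 6 mM. RNA content and percent encapsulation were determined by Ribogreen with and without Triton X-100.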

[3] = test system: Hep G2 cells; test: In vitro toxicity (CellTiter-Glo cell viability), Hep G2; assay type: cell-based;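 further: percent of untreated cells luminescence signal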
How it was run: (§3)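 Toxicity of RNA-LNPs (1 μg/mL) is reported as cell viability, calculated from CellTiter-Glo luminescence measured at 72 hours after transfection.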

[4] = test system: Aspartate Aminotransferase (AST); test: Liver enzyme elevation in serum, AST; assay type: in vivo; conditions: cirRNA (SEQ ID NO: 1) LNPs, BALB/C mice, intravenous 0.5 MPK
Method: as §1

[5] = test system: BALB/C mice; test: Local tolerance determination by footpad injection; assay type: in vivo; conditions: cirRNA (SEQ ID NO: 1) LNP, 0.175 mg*kg-1 subcutaneous into the footpad, 24 hours post minus prior
Method: 6-8 week old, female BALB/C mice were injected with 0.175 mg*kg-1 RNA LNPs by subcutaneous injection into the footpad. Prior to, and 24 hours post injections, injected footpad thickness was determined by a caliper.

[6] = LNP size and polydispersity index (PDI) by dynamic light scattering; assay type: physicochemical; conditions: for Size: in nm (unit assumed)
How it was run: as §2

[7] = test system: BALB/C mice; test: In vivo expression, whole-body luminescence (IVIS)
Method: 6-8 week old, female BALB/C mice were injected with 0.05 mg*kg-1 of RNA-LNPs encoding for firefly-luciferase by intravenous injection. At 6 hours post injection, animals were intraperitoneally injected with 15 mg/ml of Luciferin substrate and whole-body luminescence was determined by a bioluminescent in vivo imaging system (IVIS).

[8] = test system: MCP-I; test: MCP-I cytokine elevation in serum; assay type: in vivo; conditions: cirRNA (SEQ ID NO: 1) LNPs, mice
Method: 6-8 week old, female BALB/C mice were injected with 0.5 mg*kg-1 of RNA LNPs by intravenous injection. At 2 and 24 hours post injection, animals were bled and sera concentrations of MCP-I were determined by an immunoassay (Luminex).

[9] = LNP zeta potential (Zetasizer); assay type: physicochemical
How it was run: as §2

[10] = test system: RAW 264.7 cells; test: In vitro toxicity (CellTiter-Glo cell viability), RAW 264.7; assay type: cell-based;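 further: percent of untreated cells luminescence signal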
How it was run: as §3

[11] = test system: RAW 264.7 cells; test: In vitro expression of firefly-luciferase, RAW 264.7; assay type: cell-based
How it was run: (§4)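 First, cells were dosed with RNA lipid nanoparticles encoding firefly luciferase (100 ng/mL). Second, at 72 h they were washed and lysed. Third, lysate luciferase activity was read with a luminometer.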

[12] = test system: Hep G2 cells; test: In vitro expression of firefly-luciferase, Hep G2; assay type: cell-based
How it was run: as §4

[13] = cirRNA (SEQ ID NO: 1) LNPs, Hep G2 cells
[14] = mRNA (SEQ ID NO: 2) LNP, 1 μg/mL, 72 hours post transfection
[15] = cirRNA (SEQ ID NO: 1) LNPs, BALB/C mice
[16] = mRNA (SEQ ID NO: 2) LNP, 0.05 mg*kg-1 intravenous, 6 hours post injection
[17] = cirRNA (SEQ ID NO: 1) LNPs, RAW 264.7 cells
[18] = cirRNA (SEQ ID NO: 1) LNPs, firefly-luciferase luminescence, RAW 264.7 cells
[19] = mRNA (SEQ ID NO: 2) LNP, 100 ng/mL, 72 hours post transfection, luciferase activity
[20] = cirRNA (SEQ ID NO: 1) LNPs, firefly-luciferase luminescence, Hep G2 cells

CCCCC/C=C\C/C=C\CCCCCCCCN(CCCCCCCC(=O)OC(CCCCCCCC)CCCCCCCC)CCOC(=O)NCCN(C)C [Lipid 129, heptadecan-9-yl 2-methyl-10-((9Z,12Z)-octadeca-9,12-dien-1-yl)-6-oxo-7-oxa-2,5,10-triazaoctadecan-18-oate]
ALT in Sera (IU/L) 2 hours After 0.5 MPK Injection [1]: 64.50 IU/L
ALT in Sera (IU/L) 24 hours After 0.5 MPK Injection [1]: 67.87 IU/L
Encapsulation Efficiency % [2]: 96%
Encapsulation Efficiency [2]: 90%
In vitro Viability HepG2 [3, 13]: 79%
In vitro Viability HepG2 [3, 14]: 100%
AST in Sera (IU/L) 2 hours After 0.5 MPK Injection [4]: 188.97 IU/L
AST in Sera (IU/L) 24 hours After 0.5 MPK Injection [4]: 112.03 IU/L
Footpad Thickness (24 h−0 h, mm) [5]: 1.09 mm
PDI ([6]; LNP with cirRNA (SEQ ID NO: 1)): 0.08
Size ([6]; LNP with cirRNA (SEQ ID NO: 1)): 88.9
PDI ([6]; LNP with mRNA (SEQ ID NO: 2)): 0.1768
Size ([6]; LNP with mRNA (SEQ ID NO: 2)): 55.55
In vivo Expression (Whole Body) [7, 15]: 1.69E+09
In vivo Expression (Whole Body) [7, 16]: 1.42E+08
MCP-I in Sera 2 hours After 0.5 MPK Injection [8]: 3830.40 pg/mL
MCP-I in Sera 24 hours After 0.5 MPK Injection [8]: 272.54 pg/mL
Zeta (mV) ([9]; LNP with cirRNA (SEQ ID NO: 1)): 0.417 mV
Zeta (mV) ([9]; LNP with mRNA (SEQ ID NO: 2)): 0.5475 mV
In vitro Viability RAW [10, 17]: 7%
In vitro Viability RAW [10, 14]: 97%
In vitro Expression RAW [11, 18]: 8.78E+06
In vitro Expression RAW [11, 19]: 1.11E+06
In vitro Expression HepG2 [12, 20]: 8.56E+06
In vitro Expression HepG2 [12, 19]: 7.03E+06

CCCCC/C=C\C/C=C\CCCCCCCCN(CCCCCCCC(=O)OC(CCCCCCCC)CCCCCCCC)CCOC(=O)NCCCN(CC)CC [Lipid 131, heptadecan-9-yl 3-ethyl-12-((9Z,12Z)-octadeca-9,12-dien-1-yl)-8-oxo-9-oxa-3,7,12-triazaicosan-20-oate]
ALT in Sera (IU/L) 2 hours After 0.5 MPK Injection [1]: 51.17 IU/L
ALT in Sera (IU/L) 24 hours After 0.5 MPK Injection [1]: 44.57 IU/L
Encapsulation Efficiency % [2]: 96%
Encapsulation Efficiency [2]: 90.68%
In vitro Viability HepG2 [3, 13]: 83%
In vitro Viability HepG2 [3, 14]: 89%
AST in Sera (IU/L) 2 hours After 0.5 MPK Injection [4]: 161.27 IU/L
AST in Sera (IU/L) 24 hours After 0.5 MPK Injection [4]: 83.17 IU/L
Footpad Thickness (24 h−0 h, mm) [5]: 1.17 mm
PDI ([6]; LNP with cirRNA (SEQ ID NO: 1)): 0.22
Size ([6]; LNP with cirRNA (SEQ ID NO: 1)): 74.78
PDI ([6]; LNP with mRNA (SEQ ID NO: 2)): 0.1606
Size ([6]; LNP with mRNA (SEQ ID NO: 2)): 84.16
In vivo Expression (Whole Body) [7, 15]: 2.27E+08
In vivo Expression (Whole Body) [7, 16]: 4.52E+07
MCP-I in Sera 2 hours After 0.5 MPK Injection [8]: 5003.82 pg/mL
MCP-I in Sera 24 hours After 0.5 MPK Injection [8]: 16.42 pg/mL
Zeta (mV) ([9]; LNP with cirRNA (SEQ ID NO: 1)): 5.61 mV
Zeta (mV) ([9]; LNP with mRNA (SEQ ID NO: 2)): 15.29 mV
In vitro Viability RAW [10, 17]: 77%
In vitro Viability RAW [10, 14]: 96%
In vitro Expression RAW [11, 18]: 4.04E+06
In vitro Expression RAW [11, 19]: 9.55E+05
In vitro Expression HepG2 [12, 20]: 4.49E+06
In vitro Expression HepG2 [12, 19]: 5.66E+06

CCCCC/C=C\C/C=C\CCCCCCCCN(CCCCCCCC(=O)OC(CCCCCCCC)CCCCCCCC)CCOC(=O)NCc1ncc[nH]1 [Lipid 132, heptadecan-9-yl 8-((2-((((1H-imidazol-2-yl)methyl)carbamoyl)oxy)ethyl)((9Z,12Z)-octadeca-9,12-dien-1-yl)amino)octanoate]
ALT in Sera (IU/L) 2 hours After 0.5 MPK Injection [1]: 65.03 IU/L
ALT in Sera (IU/L) 24 hours After 0.5 MPK Injection [1]: 44.73 IU/L
Encapsulation Efficiency % [2]: 97%
Encapsulation Efficiency [2]: 89.06%
In vitro Viability HepG2 [3, 13]: 97%
In vitro Viability HepG2 [3, 14]: 80%
AST in Sera (IU/L) 2 hours After 0.5 MPK Injection [4]: 136.00 IU/L
AST in Sera (IU/L) 24 hours After 0.5 MPK Injection [4]: 72.53 IU/L
Footpad Thickness (24 h−0 h, mm) [5]: 1.24 mm
PDI ([6]; LNP with cirRNA (SEQ ID NO: 1)): 0.072
Size ([6]; LNP with cirRNA (SEQ ID NO: 1)): 91.78
PDI ([6]; LNP with mRNA (SEQ ID NO: 2)): 0.2359
Size ([6]; LNP with mRNA (SEQ ID NO: 2)): 56.12
In vivo Expression (Whole Body) [7, 15]: 6.13E+08
In vivo Expression (Whole Body) [7, 16]: 6.62E+08
MCP-I in Sera 2 hours After 0.5 MPK Injection [8]: 28.53 pg/mL
MCP-I in Sera 24 hours After 0.5 MPK Injection [8]: 96.56 pg/mL
Zeta (mV) ([9]; LNP with cirRNA (SEQ ID NO: 1)): −0.7024 mV
Zeta (mV) ([9]; LNP with mRNA (SEQ ID NO: 2)): −8.336 mV
In vitro Viability RAW [10, 17]: 108%
In vitro Viability RAW [10, 14]: 93%
In vitro Expression RAW [11, 18]: 4.24E+05
In vitro Expression RAW [11, 19]: 1.27E+05
In vitro Expression HepG2 [12, 20]: 1.44E+05
In vitro Expression HepG2 [12, 19]: 1.83E+05

CCCCCCCCC(CCCCCCCC)OC(=O)CCCCCCCN(CCCCCCCCOC(=O)C(CCCCCC)CCCCCCCC)CCOC(=O)NCCN1CCCC1 (stereo not shown) [Lipid 148, 8-((8-(heptadecan-9-yloxy)-8-oxooctyl)(2-(((2-(pyrrolidin-1-yl)ethyl)carbamoyl)oxy)ethyl)amino)octyl 2-hexyldecanoate]
ALT in Sera (IU/L) 2 hours After 0.5 MPK Injection [1]: 53.60 IU/L
ALT in Sera (IU/L) 24 hours After 0.5 MPK Injection [1]: 59.93 IU/L
Encapsulation Efficiency % [2]: 95%
Encapsulation Efficiency [2]: 93.50%
In vitro Viability HepG2 [3, 13]: 47%
In vitro Viability HepG2 [3, 14]: 128%
AST in Sera (IU/L) 2 hours After 0.5 MPK Injection [4]: 136.17 IU/L
AST in Sera (IU/L) 24 hours After 0.5 MPK Injection [4]: 108.13 IU/L
Footpad Thickness (24 h−0 h, mm) [5]: 0.23 mm
PDI ([6]; LNP with cirRNA (SEQ ID NO: 1)): 0.03
Size ([6]; LNP with cirRNA (SEQ ID NO: 1)): 93.46
PDI ([6]; LNP with mRNA (SEQ ID NO: 2)): 0.07065
Size ([6]; LNP with mRNA (SEQ ID NO: 2)): 122.1
In vivo Expression (Whole Body) [7, 15]: 5.07E+08
In vivo Expression (Whole Body) [7, 16]: 1.69E+09
MCP-I in Sera 2 hours After 0.5 MPK Injection [8]: 6709.61 pg/mL
MCP-I in Sera 24 hours After 0.5 MPK Injection [8]: 69.59 pg/mL
Zeta (mV) ([9]; LNP with cirRNA (SEQ ID NO: 1)): −2.35 mV
Zeta (mV) ([9]; LNP with mRNA (SEQ ID NO: 2)): 3.769 mV
In vitro Viability RAW [10, 17]: 21%
In vitro Viability RAW [10, 14]: 102%
In vitro Expression RAW [11, 18]: 2.40E+05
In vitro Expression RAW [11, 19]: 8.69E+05
In vitro Expression HepG2 [12, 20]: 2.35E+06
In vitro Expression HepG2 [12, 19]: 6.39E+02
